Read-outs that look alike come from different tables or passages of the source.
Key:
HIV-1Ba-L [1] = assay: HIV-1 replication in PBL, p24 ELISA of culture supernatant; type: cell-based
Excerpt: (§1) Peripheral Blood Mononuclear Cell (PBMC) fractions were isolated from heparinized blood from HIV-1-, HIV-2- and hepatitis B-seronegative donors (Bloodbank, Utrecht, The Netherlands) by Ficoll-Isopaque gradient separation. Cells were washed twice and were then either subjected to counter-current centrifugal elutriation, or monocytes in the PBMC fraction were allowed to adhere to fibronectin-coated flasks before the PBL fraction was harvested. Monocytes were of >95% purity by criteria of cell morphology on May-Grunwald-Giemsa-stained cytosmears and by non-specific esterase staining using (α-naphthylacetate (Sigma Chemical Co., St. Louis, MO) and PBL >85% purity by May-Grunwald-Giemsa-staining. Viability of both cell types was >95% at the point of experiment initiation as determined by trypan-blue exclusion. Isolated monocytes were cultured in suspension at a concentration of 2 x 10^6 cells/ml in teflon flasks minimizing adherence (Nalgene, Rochester, NY) and allowed to differentiate for 7 days. MDM medium consisted of Dulbecco's modified Eagle's medium supplemented with 10% heat-inactivated human AB serum, negative for anti-HIV antibodies (Bloodbank Utrecht, NL), 10 µg/ml gentamycin (Life Technologies Ltd, Paisley, Scotland), 5 µg/ml ciprofloxacin (Beyer, Leverkusen, Germany), 0.6 mg/ml L-glutamine (Sigma) and 3.4 g/L bicarbonate (Merck, Darmstadt, Germany). Isolated PBL was stimulated to proliferate for 3 days with 4 µg/ml phytohemagglutinin (PHA; Sigma) in RPMI-1640 (Life Technologies Ltd.) medium supplemented with 10% heat inactivated fetal calf serum (Life Technologies Ltd.) and 10 µg/ml gentamycin. After PHA stimulation the PBL were cultured in medium containing 10 U/ml human recombinant IL-2 (Boehringer, Mannheim, Germany). All incubations were carried out in flat-bottomed 96-well plates at 37 °C, 5% CO2 and 95% air.
(§2) Cells were infected for 2 hours with HIV-1Ba-L. Macrophages were infected with a multiplicity of infection (MOI) of 0.005 and lymphocytes with an MOI of 0.001. The cells were then washed twice to remove excess virus and subsequently incubated with either DF (Novartis Pharma, Arnhem, The Netherlands), L1 (from Duchefa Farma B.V., Haarlem, The Netherlands) or BLM (H. Lundbeck A/S, Copenhagen, Denmark) for a period of 5 days. Virus in culture supernatant was inactivated in a final concentration of 0.05% empigen (Calbiochem-Novabiochem Co., La Jolla, CA). The presence of HIV-1 in the inactivated supernatant was monitored by checking for the p24-core antigen by enzyme-linked immunosorbent assay (ELISA).
For the HIV-1 replication measurements cells were infected for 2 hours with HIV-1Ba-L at an MOI of 0.001; the cells were subsequently washed 2 times and incubated with different DF concentrations. After 5 days, supenatant was harvested for p24 ELISA. Virus replication was expressed as % p24 reduction after DF incubations, compared to p24 measured from control HIV-infected cells incubated in the absence of DF (set at 100% p24). Cytotoxicity was measured by the MTT test and is represented as % viable cells after 5 days DF incubations, compared to viable cells from control HIV-infected cells incubated in the absence of DF (set at 100% viable cells). PBL proliferation was measured by overnight ^3H-thymidine incorporation after DF was incubated for 4 days with cells; it is represented as counts per minute (cpm) after DF incubations, compared to cpm from control cells, incubated in the absence of DF. Results are the average of 3 experiments in duplicate (statistical analysis using repeated ANOVA and student Newman-Keuls test, *p<0.05). 100% p24 production represents 19 ng p24/ml
For the HIV-I replication measurements cells were infected for 2 hours with HIV-1Ba-L at an MOI of 0.001; the cells were subsequently washed 2 times and incubated with different L1 concentrations. After 5 days, supernatant was harvested for p24 ELISA. […]

MDM = assay: Cytotoxicity in MDM, MTT assay; type: cell-based, human; details: 5 days
Procedure: (§3) Peripheral Blood Mononuclear Cell (PBMC) fractions were isolated from heparinized blood from HIV-1-, HIV-2- and hepatitis B-seronegative donors (Bloodbank, Utrecht, The Netherlands) by Ficoll-Isopaque gradient separation. Cells were washed twice and were then either subjected to counter-current centrifugal elutriation, or monocytes in the PBMC fraction were allowed to adhere to fibronectin-coated flasks before the PBL fraction was harvested. […] After PHA stimulation the PBL were cultured in medium containing 10 U/ml human recombinant IL-2 (Boehringer, Mannheim, Germany).
(§4) Possible cytotoxicity of DF, L1 or BLM was monitored by the MTT [3-(4,5 dimethylthiazol-2-yl)-2,5-diphenyltetrazolium bromide] (Sigma) assay.
(§5) For the HIV-1 replication measurements cells were infected for 2 hours with HIV-1Ba-L at an MOI of 0.001; the cells were subsequently washed 2 times and incubated with different compound concentrations. After 5 days supernatant was harvested for p24 ELISA; Virus replication was expressed as % p24 reduction after compound incubations, compared to p24 measured from control HIV-infected cells incubated in the absence of compounds (set at 100% p24). Cytotoxicity was measured by the MTT test and is represented as % viable cells after 5 days compound incubations, compared to viable cells from control HIV-infected cells incubated in the absence of compounds (set at 100% viable cells). Results are the average of 3 experiments in duplicate (statistical analysis using repeated ANOVA and student Newman-Keuls test, *p<0.05).

HIV-1Ba-L [2] = assay: HIV-1 replication in MDM, p24 ELISA of culture supernatant; type: cell-based; details: 5 days
Excerpt: as §1, §2
as §5, with “*p<0.05). 100% p24 production represents 1.2 ng p24/ml.” for “*p<0.05).”

PBL [3] = assay: Cytotoxicity in PBL, MTT assay; type: cell-based, human; details: 5 days incubation
Procedure: as §3, §4
(§6) Results are the average of 3 experiments in duplicate (statistical analysis using repeated ANOVA and student Newman-Keuls test, *p<0.05).
as §6, §6

HIV-1Ba-L [4] = assay: Drug combination studies, p24 inhibition in HIV-infected PBL, median-effect / combination index (CalcuSyn); type: cell-based; details: 5 days; for IC50: Human immunodeficiency virus 1, 120 h, read-out: IC50 (p24-antigen inhibition)
Procedure: Three separate experiments were performed substantially as described in the section HIV infection and p24 measurements. Multiply-diluted fixed-ratio combinations of the drugs, or single drugs were added to each incubation point. The IC50 (inhibitory concentration) of each drug was calculated using the computer software program CalcuSyn. The combined-drug effect was evaluated by the median-effect principle and the isobologram method. This method involves the plotting of the dose-effect curve for each drug alone and in combination. The slope of the median-effect plot and the x intercept of the plot were then used for the computerized calculation of a combination index (CI). The CI values were based on the classic isobologram equation and CI values of <1, 1 and >1 indicate synergism (greater than the expected additive effect), additive effects and antagonism (less than the expected additive effect). Fraction affected (fa) was calculated for every drug combination and for each drug alone after p24 measurements in infected PBL incubated for 5 days with the examined compounds (see HIV infection and p24 measurements).
CT < 1, = 1 and > 1 represent synergistic, additive and antagonistic effects, respectively. The subdivision within the synergistic area (CI >0.7, 0.3-0.7 and <0.3 implying moderate synergism, synergism, and strong synergism respectively) is according to Chou and Talalay. The parameters are obtained using the median effect equation of Chou and Talalay and the CalcuSync computer software programme as described in materials and methods.
Peripheral blood lymphocytes (PBL) were infected for 2 hours with HIV-1Ba-L at an MOI of 0.001. The cells were subsequently washed 2 times to remove an excess in virus and subsequently incubated for 5 days with only BLM, only ritonavir or various combinations of the two substances. Virus in the supernatant of the cell cultures was inactivated in a final concentration of 0.05% empigen and the presence of HIV-1 in the inactivated supernatant was measured by determining the p24 antigen with enzyme-linked immunosorbent assay (ELISA). […]

PBL [5] = assay: Lymphocyte proliferation, overnight 3H-thymidine incorporation; type: cell-based, human; details: concentrations studied, 4 days incubation then overnight 3H-TdR
Excerpt: as §1, with “Isolated PBL was stimulated to proliferate for 3 days with 4 µg/ml phytohemagglutinin (PHA; Sigma) in RPMI-1640 (Life Technologies Ltd.) medium supplemented with 10% heat inactivated fetal calf serum (Life Technologies Ltd.) and 10 µg/ml gentamycin. After PHA stimulation the PBL were cultured in medium containing 10 U/ml human recombinant IL-2 (Boehringer, Mannheim, Germany). All incubations were carried out in flat-bottomed 96-well plates at 37 °C, 5% CO2 and 95% air.” left out

[6] = single drug within the DF-ddI combination experiment
[7] = single drug within the BLM-ritonavir combination experiment
[8] = 300 ng BLM/ml, control 1.2 ng p24/ml

In the case of CC(=O)N(O)CCCCCNC(=O)CCC(=O)N(O)CCCCCNC(=O)CCC(=O)N(O)CCCCCN [DF, deferoxamine], the “p24 level in culture supernatant” value (HIV-1Ba-L [1]; 3 µM, 5 days, control 19 ng p24/ml) is reported as 11 ng p24/ml, the “p24 level in culture supernatant” value (HIV-1Ba-L [1]; 30 µM, 5 days, n=3, control 19 ng p24/ml) is reported as 1.9 ng p24/ml and the inhibition at 3 µM (HIV-1Ba-L [1]; Human immunodeficiency virus 1, 120 h, 3 µM, 5 days incubation, n=3, p<0.05, control 19 ng p24/ml, read-out: reduction in viral replication (p24)) is reported as 40%. For the same molecule, the inhibition at 30 µM (HIV-1Ba-L [1]; Human immunodeficiency virus 1, 120 h, 30 µM, 5 days, n=3, control 19 ng p24/ml, read-out: reduction of p24 levels) was over 90%, the “cytotoxicity (cell viability, MTT)” value (MDM; concentrations around 100 µM) was “onset of cytotoxicity” and the inhibition at 100 µM (HIV-1Ba-L [2]; Human immunodeficiency virus 1, 120 h, concentrations around 100 µM, control 1.2 ng p24/ml, read-out: reduction of viral replication (p24)) was at most 50%. The “p24 level in culture supernatant” value (HIV-1Ba-L [2]; concentrations around 100 µM, control 1.2 ng p24/ml) was 0.6 ng p24/ml, the “cytotoxicity (cell viability, MTT)” value (PBL [3]; 100 µM) was “cytotoxic” and the IC50 (HIV-1Ba-L [4]; [6]) was 8.5 µM.

In the case of Cc1c(O)c(=O)ccn1C [L1, deferiprone], the “cellular proliferation (3H-thymidine incorporation)” value (PBL [5]) is reported as “decrease in proliferation”, the “HIV-1 replication (p24)” value (HIV-1Ba-L [1]; 100 µM, 5 days) is reported as “reduced to minimal levels” and the p24 antigen production (HIV-1Ba-L [1]; lower compound concentrations (below 100 µM), 5 days) is reported as “subtle increase”. The “cytotoxicity (cell viability, MTT)” value (MDM; concentrations studied) was “not cytotoxic”, the “up-regulation of p24 antigen production” value (HIV-1Ba-L [2]; 30 µM) was “up to two fold” and the “cytotoxicity (cell viability, MTT)” value (PBL [3]; 100 µM) was “not cytotoxic”.

O=c1[nH]cnc2c1ncn2[C@H]1CC[C@@H](CO)O1 [ddI, dideoxyinosine] showed an IC50 (HIV-1Ba-L [4]; [6]) of 3.7 µM.

Work on CC(C)c1nc(CN(C)C(=O)N[C@H](C(=O)N[C@@H](Cc2ccccc2)C[C@H](O)[C@H](Cc2ccccc2)NC(=O)OCc2cncs2)C(C)C)cs1 [ritonavir] yielded an IC50 (HIV-1Ba-L [4]; [7]) of 0.04 µM.

With bleomycin [BLM] the “cellular proliferation (3H-thymidine incorporation)” value (PBL [5]) was “remained intact”, the “reduction of HIV-1 replication (p24)” value (HIV-1Ba-L [1]; 3-300 ng BLM/ml, 5 days, n=3, control 19 ng p24/ml) was 20-50% and the “p24 level in culture supernatant” value (HIV-1Ba-L [1]; lower end of 3-300 ng BLM/ml range (20% reduction), n=3, control 19 ng p24/ml) was 15 ng p24/ml. For the same molecule, the “p24 level in culture supernatant” value (HIV-1Ba-L [1]; upper end of 3-300 ng BLM/ml range (50% reduction), n=3, control 19 ng p24/ml) was 9.5 ng p24/ml, the “cytotoxicity (cell viability, MTT)” value (MDM; concentrations studied) was “not to affect cell viability” and the “p24 level in culture supernatant” value (HIV-1Ba-L [2]; [8]) was 0.6 ng p24/ml. The “reduction of p24 levels” value (HIV-1Ba-L [2]; [8]) was 50%, the “cytotoxicity (cell viability, MTT)” value (PBL [3]; concentrations studied) was “not cytotoxic” and the “IC50 (p24-antigen inhibition)” value (HIV-1Ba-L [4]; [7]) was 1.9 µg/mL.

Source: patent EP1257261B1, “ANTIVIRAL PHARMACEUTICAL COMPOSITIONS CONTAINING IRON CHELATORS” (Faculteit Geneeskunde Universiteit Utrecht, priority 1999, dated 2001)
